PMC4779956 (Journal of medicinal chemistry, 2015)

Experiments:
[1] = system: MCF-7:5C cells; assay: MCF-7:5C cell viability assay; format: cell-based, human
[2] = molecular target: T1, ERα (Homo sapiens, UniProt P03372); assay: ERE-luciferase reporter assay; format: cell-based; settings: for Efficacy (% E2): MCF-7:ws8 cells, normalized to Ctrl (0%) and E2 1 nM (100%)
T1 sequence (P03372 1-595): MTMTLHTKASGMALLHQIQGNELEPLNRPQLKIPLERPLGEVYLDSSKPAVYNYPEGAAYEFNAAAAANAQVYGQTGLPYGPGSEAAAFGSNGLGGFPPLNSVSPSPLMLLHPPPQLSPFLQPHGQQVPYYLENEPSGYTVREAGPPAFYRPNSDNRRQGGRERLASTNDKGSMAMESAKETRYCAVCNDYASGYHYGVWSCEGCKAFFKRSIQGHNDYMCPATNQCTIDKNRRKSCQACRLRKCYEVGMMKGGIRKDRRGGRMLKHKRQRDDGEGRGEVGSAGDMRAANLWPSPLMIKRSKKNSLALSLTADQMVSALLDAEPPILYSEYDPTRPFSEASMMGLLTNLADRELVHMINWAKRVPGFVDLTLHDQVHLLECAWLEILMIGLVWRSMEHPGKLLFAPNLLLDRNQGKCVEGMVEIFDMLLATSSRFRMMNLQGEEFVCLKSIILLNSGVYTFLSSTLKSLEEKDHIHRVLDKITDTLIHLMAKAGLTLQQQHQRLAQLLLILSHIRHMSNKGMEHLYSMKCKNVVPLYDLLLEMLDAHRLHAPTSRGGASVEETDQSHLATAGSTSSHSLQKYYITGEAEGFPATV

[3] = molecular target: T1, ERα; assay: Antagonism of E2-induced ERE-luciferase activation; format: cell-based; settings: MCF-7:ws8, in presence of 0.1 nM E2, ShERPA 100-500 nM, 18 h
[4] = molecular target: T2, ERα-LBD/SRC3 complex (Homo sapiens, UniProt P03372); assay: TR-FRET SRC3 titration; format: biochemical; settings: 20 μM ligand
T2 sequence (P03372 311-547 limits assumed): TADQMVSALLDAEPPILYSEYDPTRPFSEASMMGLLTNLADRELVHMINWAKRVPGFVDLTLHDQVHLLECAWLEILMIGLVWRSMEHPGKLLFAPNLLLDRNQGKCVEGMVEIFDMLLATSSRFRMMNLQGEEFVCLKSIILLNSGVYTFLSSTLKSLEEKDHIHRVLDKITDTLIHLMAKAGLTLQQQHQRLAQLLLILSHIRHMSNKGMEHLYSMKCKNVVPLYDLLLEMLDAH
T2 sequence (Q9Y6Q9 627-829 partner limits assumed): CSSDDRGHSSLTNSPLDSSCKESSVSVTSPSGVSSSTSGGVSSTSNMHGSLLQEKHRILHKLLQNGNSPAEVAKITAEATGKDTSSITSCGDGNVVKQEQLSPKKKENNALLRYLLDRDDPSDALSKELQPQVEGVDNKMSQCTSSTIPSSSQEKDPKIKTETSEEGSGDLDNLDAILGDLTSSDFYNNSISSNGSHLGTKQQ

[5] = molecular target: T2, ERα-LBD/SRC3 complex; assay: TR-FRET ligand titration in presence of 10 nM E2; format: biochemical; settings: in presence of 10 nM E2, 100 nM SRC3
[6] = system: T47D:A18/PKCα tumors; assay: T47D:A18/PKCα tamoxifen-resistant xenograft; format: in vivo, mice; settings: 100 mg/kg oral gavage daily, within two weeks
[7] = system: T47D:A18/PKCα tumors; settings: T47D:A18/PKCα model; cited from earlier work
[8] = T47D:A18/PKCα xenograft study; cited from earlier work
[9] = system: T47D:A18-TAM1; settings: T47D:A18-TAM1 model; cited from earlier work
[10] = Uterine weight in xenograft study; format: in vivo, mice; settings: T47D:A18/PKCα xenograft study, 100 mg/kg oral daily

For `C[C@]12CC[C@@H]3c4ccc(O)cc4CC[C@H]3[C@@H]1CC[C@@H]2O` [Compound E2, estradiol, reference compound], which “Reduction of cell viability compared to vehicle control” value ([1]; 9 days) is on record?
The value was “approximately 60%”.

For `Oc1ccc2c(-c3ccc(F)cc3)c(Oc3ccc(F)cc3)sc2c1` [Compound 30c, 2-(4-fluorophenoxy)-3-(4-fluorophenyl)benzo[b]thiophen-6-ol], which “Efficacy (% E2)” value [2] is on record?
Its value is 100 % E2.

For `O=C(c1ccc(C(F)(F)F)cc1)c1c(-c2ccc(F)cc2)sc2cc(O)ccc12` [Compound 14b, (2-(4-fluorophenyl)-6-hydroxybenzo[b]thiophen-3-yl)(4-(trifluoromethyl)phenyl)methanone], which “Efficacy (% E2)” value [2] is on record?
The value was 100 % E2.

With `Oc1ccc2c(-c3ccc(F)cc3)c(Oc3ccc(Cl)cc3)sc2c1` [Compound 30b, 2-(4-chlorophenoxy)-3-(4-fluorophenyl)benzo[b]thiophen-6-ol] as the molecule, how does the “Efficacy (% E2)” value [2] read?
Its value is 70 % E2.

What about the “Antagonism of E2 induced ERE activation” value [3] of the same molecule?
The value was “dose dependent reduction in E2 luciferase activity”.

For `CS(=O)(=O)c1ccc(C(=O)c2sc3cc(O)ccc3c2-c2ccc(F)cc2)cc1` [Compound 21a, (3-(4-fluorophenyl)-6-hydroxybenzo[b]thiophen-2-yl)(4-(methylsulfonyl)phenyl)methanone], which “Efficacy (% E2)” value [2] is on record?
Its value is 100 % E2.

With `C#Cc1ccc(C(=O)c2sc3cc(O)ccc3c2-c2ccc(F)cc2)cc1` [Compound 23, (4-ethynylphenyl)(3-(4-fluorophenyl)-6-hydroxybenzo[b]thiophen-2-yl)methanone] as the molecule, how does the EC50 [2] read?
Its EC50 is 5 nM.

And the “Efficacy (% E2)” value [2]?
Its value is 65 % E2.

What about the “Antagonism of E2 induced ERE activation” value [3] of the same molecule?
Its value is “dose dependent reduction in E2 luciferase activity”.

What about the “Maximal FRET signal relative to E2-liganded ERα-LBD/SRC3 complex” value [4] of the same molecule?
The value was “less than 50%”.

What about the “Effect on FRET signal on ligand titration” value [5] of the same molecule?
The value was “reduced FRET signal”.

What about the “Tumor size versus control tumors” value [6] of the same molecule?
Its value is “half the size of control tumors”.

For `O=C(c1ccc(C(F)(F)F)cc1)c1c(-c2ccc(Cl)cc2)sc2cc(O)ccc12` [Compound 14c, (2-(4-chlorophenyl)-6-hydroxybenzo[b]thiophen-3-yl)(4-(trifluoromethyl)phenyl)methanone], which “Efficacy (% E2)” value [2] is on record?
The value was 100 % E2.

For `O=C(c1ccc(O)cc1)c1sc2cc(O)ccc2c1-c1ccc(F)cc1` [Compound 21b, (3-(4-fluorophenyl)-6-hydroxybenzo[b]thiophen-2-yl)(4-hydroxyphenyl)methanone], which “Efficacy (% E2)” value [2] is on record?
Its value is 100 % E2.

For `N#Cc1ccc(C(=O)c2sc3cc(O)ccc3c2-c2ccc(F)cc2)cc1` [Compound 26b, 4-(3-(4-fluorophenyl)-6-hydroxybenzo[b]thiophene-2-carbonyl)benzonitrile], which “Efficacy (% E2)” value [2] is on record?
The value was 100 % E2.

Which “Efficacy (% E2)” value [2] does the source give for `Oc1ccc2c(-c3ccc(F)cc3)c(Oc3ccc(F)c(F)c3)sc2c1` [Compound 30d, 2-(3,4-difluorophenoxy)-3-(4-fluorophenyl)benzo[b]thiophen-6-ol] here?
Its value is 100 % E2.

Which “Efficacy (% E2)” value [2] does the source give for `Cc1ccc(C(=O)c2c(-c3ccc(O)cc3)sc3cc(O)ccc23)cc1` [Compound 14a] here?
The value was 100 % E2.

Which “Efficacy (% E2)” value [2] does the source give for `Oc1ccc(Oc2sc3cc(O)ccc3c2-c2ccc(F)cc2)cc1` [Compound 30a, 3-(4-fluorophenyl)-2-(4-hydroxyphenoxy)benzo[b]thiophen-6-ol] here?
The value was 60 % E2.

And the “Antagonism of E2 induced ERE activation” value [3]?
The value was “dose dependent reduction in E2 luciferase activity”.

What about the “Maximal FRET signal relative to E2-liganded ERα-LBD/SRC3 complex” value [4] of the same molecule?
The value was “less than 50%”.

What about the “Effect on FRET signal on ligand titration” value [5] of the same molecule?
Its value is “reduced FRET signal”.

And the Xenograft tumor regression [7]?
Its Xenograft tumor regression is “dramatic regression”.

And the Uterine weight [8]?
Its Uterine weight is “not accompanied by a significant increase in uterine weight”.

What about the Xenograft tumor regression [9] of the same molecule?
The Xenograft tumor regression was “dramatic regression”.

Which “Efficacy (% E2)” value [2] does the source give for `O=C(c1ccc(C(F)(F)F)cc1)c1sc2cc(O)ccc2c1-c1ccc(F)cc1` [Compound 26a, (3-(4-fluorophenyl)-6-hydroxybenzo[b]thiophen-2-yl)(4-(trifluoromethyl)phenyl)methanone] here?
Its value is 85 % E2.

And the “Tumor size versus control tumors” value [6]?
Its value is “half the size of control tumors”.

And the “Uterine weight versus vehicle control” value [10]?
Its value is “no significant increase in uterine weight compared to vehicle control mice”.

What does the source list for `O=C(c1sc2cc(O)ccc2c1-c1ccc(F)cc1)C1CCCCC1` [Compound 21g, Cyclohexyl(3-(4-fluorophenyl)-6-hydroxybenzo[b]thiophen-2-yl)methanone]?
Efficacy (% E2) [2]: 100 % E2; Inhibition of cell growth relative to E2 % ([1]; 10 nM, 9 day, control 0 %, E2 100 %, 0.01 µM): 100%

With `Oc1ccc(Oc2c(-c3ccc(F)cc3)sc3cc(O)ccc23)cc1` [Compound 19, 2-(4-fluorophenyl)-3-(4-hydroxyphenoxy)benzo[b]thiophen-6-ol] as the molecule, how does the “Efficacy (% E2)” value [2] read?
Its value is 100 % E2.
